Several values for one entry are separate records, joined by “and”; a condition that tells them apart may be missing. Identical values can stand only once.
What was measured:
[1] = system: MMTV-HER2 Fo5 transgenic mammary tumor; experiment: MMTV-HER2 Fo5 transgenic mammary tumor in CRL nu/nu mice; format: in vivo; settings: FIG. 34; T-DM1 10 mg/kg iv q3wk; 5-FU 100 mg/kg po qwk×2; combination T-DM1 5 mg/kg + 5-FU 100 mg/kg; 42 day time point
Method: B20-4.1 was dosed on days 0, 3, 7, 10, 14, 17, 21 and 24 (2×/wk×4 for 8 total).
[…] Gemcitabine was dosed on days 0, 3, 6 and 9 (q3d×4).
The efficacy of the combinations of the invention may be measured in vivo by implanting allografts or xenografts of cancer cells in rodents and treating the tumors with the combinations. Variable results are to be expected depending on the cell line, the presence or absence of certain mutations in the tumor cells, the sequence of administration of trastuzumab-MCC-DM1 and chemotherapeutic agent, dosing regimen, and other factors. Subject mice were treated with drug(s) or control (Vehicle) and monitored over several weeks or more to measure the time to tumor doubling, log cell kill, and tumor inhibition (Example 3). FIGS. 10-17 and 34-37 show the efficacy of trastuzumab-MCC-DM1 in combinations with chemotherapeutic agents by xenograft tumor inhibition in mice.
(§1) Animals suitable for transgenic experiments can be obtained from standard commercial sources. Groups of female CB-17 SCID beige mice (Charles River Laboratory) were implanted with 3 million KPL-4 (Her2 overexpressing) breast cancer cells with matrigel in the mammary fat pad. Groups of female athymic nude mice (Charles River Laboratory or Harlan) were implanted with 2×2 mm3 fragments of MMTV-Her2 Fo5 transgenic breast tumors in the mammary fat pad. Mouse xenografts were dosed at day 0 with drug, drug combination, or vehicle according to the schedule specified for each tumor model. 5-FU, gemcitabine, carboplatin and B20-4.1 were administered intraperitoneal, pertuzumab was given either intravenously or intraperitoneal as indicated, trastuzumab-MCC-DM1 and docetaxel were administered intravenously, lapatinib, GDC-0941 and ABT-869 were given periorally by gavage. Tumor sizes were recorded twice weekly over the course of the study. Mouse body weights were also recorded twice weekly, and the mice were observed regularly. Tumor volume was measured in two dimensions (length and width) using Ultra Cal IV calipers (Model 54-10-111; Fred V. Fowler Co., Inc.; Newton, Mass.) and analyzed using Excel v.11.2 (Microsoft Corporation; Redmond, Wash.). Tumor inhibition graphs were plotted using KaleidaGraph, Version 3.6 (Synergy Software; Reading, Pa.). The tumor volume was calculated with formula: Tumor size (mm^3)=[…]
Tumor incidence (TI) was determined based on the number of measurable tumors remaining in each group at the end of the study. […] Data were analyzed and p-values were determined using the Dunnett's t-test with JMP statistical software, version 5.1.2 (SAS Institute; Cary, N.C.). Individual tumor volumes at end of study and mean tumor volume±SEM values were calculated using JMP statistical software, version 5.1.2. […]

[2] = system: MMTV-Her2 Fo5 transgenic mammary tumor; experiment: MMTV-Her2 Fo5 transgenic mammary tumor in Harlan athymic nude mice; format: in vivo; settings: for efficacy vs vehicle by both time to tumor doubling and time to tumor endpoint: ABT-869 15 mg/kg, T-DM1 either 7.5 or 15 mg/kg; for single agent efficacy vs vehicle: FIG. 14, lapatinib 101 mg/kg po bid×21, pertuzumab 40 mg/kg iv qwk×4, B20-4.1 5 mg/kg ip 2×/wk×4, T-DM1 15 mg/kg iv q3wk
Method: (§2) The efficacy of the combinations of the invention may be measured in vivo by implanting allografts or xenografts of cancer cells in rodents and treating the tumors with the combinations.
The time to tumor doubling was measured by Kaplan-Meier statistical analysis as 2× Vo. Time to tumor doubling and survival analysis were quantified by Log-rank-p values. Time to progression is measured as the elapsed time for tumor volume to reach 1000 mm^3, or the survival time if 1000 mm^3 tumor volume is not reached.
as §1, with “5-FU, gemcitabine, carboplatin and B20-4.1 were administered intraperitoneal, pertuzumab was given either intravenously or intraperitoneal as indicated, trastuzumab-MCC-DM1 and docetaxel were administered intravenously, lapatinib, GDC-0941 and ABT-869 were given periorally by gavage.” left out, “Tumor volume was measured in two dimensions (length and width) using Ultra Cal IV calipers (Model 54-10-111; Fred V. Fowler Co., Inc.; Newton, Mass.) and analyzed using Excel v.11.2 (Microsoft Corporation; Redmond, Wash.).” left out
(§3) Tumor incidence (TI) was determined based on the number of measurable tumors remaining in each group at the end of the study. A partial response (PR) was defined as more than 50% but less than 100% reduction in tumor volume, compared with the starting tumor volume, observed for three consecutive measurements. A complete response (CR) was defined as a 100% reduction in tumor volume, compared with the initial tumor volume, observed for three consecutive measurements. Data were analyzed and p-values were determined using the Dunnett's t-test with JMP statistical software, version 5.1.2 (SAS Institute; Cary, N.C.). Individual tumor volumes at end of study and mean tumor volume±SEM values were calculated using JMP statistical software, version 5.1.2. Body weight data were graphed based on the mean percentage of change from initial body weights±SEM.

[3] = system: MDA-MB-361.1 mammary tumor; experiment: MDA-MB-361.1 mammary tumor xenograft in CRL nu/nu mice; format: in vivo
Method: as §2, §3

[4] = system: phospho-Akt, phospho-ERK, Rb, PRAS40, phospho-histone H3, cyclin B1, PARP, Bcl-XL, caspases 3 and 7; experiment: biochemical analyses of biomarkers; format: cell-based
[5] = phase I study of GDC-0941 as a single agent; format: in vivo, human; settings: 60 mg qd
KPL-4 tumors = experiment: KPL-4 tumor xenograft in SCID beige mice; format: in vivo; settings: for complete responses (CR) / partial responses (PR): FIG. 10
Method: Pertuzumab was dosed on days 0, 7, and 14.
Pertuzumab was dosed on days 0, 7, 14, 21 (qwk×4. 5-FU was dosed on days 0, 7 and 14 (qwk×3). B20-4.1 was dosed on days 0, 3, 7, 10, 14, 17, 21 and 24 (2×/wk×8 total).
as §2
as §1, with “5-FU, gemcitabine, carboplatin and B20-4.1 were administered intraperitoneal, pertuzumab was given either intravenously or intraperitoneal as indicated, trastuzumab-MCC-DM1 and docetaxel were administered intravenously, lapatinib, GDC-0941 and ABT-869 were given periorally by gavage.” left out, “Tumor volume was measured in two dimensions (length and width) using Ultra Cal IV calipers (Model 54-10-111; Fred V. Fowler Co., Inc.; Newton, Mass.) and analyzed using Excel v.11.2 (Microsoft Corporation; Redmond, Wash.).” left out
as §3

[6] = FIG. 36 (2), GDC-0941 25 mg/kg po qd×21
[7] = FIG. 36 (3), GDC-0941 50 mg/kg po qd×21
[8] = FIG. 36 (4), GDC-0941 100 mg/kg po qd×21
[9] = FIG. 37 (2), GNE-390 1.0 mg/kg po qd×21
[10] = FIG. 37 (3), GNE-390 2.5 mg/kg po qd×21
[11] = FIG. 16, T-DM1 15 mg/kg iv q3wk×2, 15 mg/kg
[12] = FIG. 17, T-DM1 15 mg/kg iv q3wk×2
[13] = FIG. 36 (5), T-DM1 3 mg/kg iv q3wk
[14] = FIG. 36 (6), T-DM1 10 mg/kg iv q3wk
[15] = pertuzumab 15 mg/kg, days 0, 7, 14

O=c1[nH]cc(F)c(=O)[nH]1 [5-FU, 5-fluoro-1H-pyrimidine-2,4-dione, reference compound]
complete responses (CR) [1]: 0 | partial responses (PR) [1]: 0

Cc1ccc(F)c(NC(=O)Nc2ccc(-c3cccc4[nH]nc(N)c34)cc2)c1 [ABT-869, 1-(4-(3-amino-1H-indazol-4-yl)phenyl)-3-(2-fluoro-5-methylphenyl)urea, reference compound]
efficacy vs vehicle by time to tumor doubling ([2]; FIG. 15, ABT-869 5 mg/kg po bid×21): not different than vehicle | efficacy vs vehicle by time to endpoint ([2]; FIG. 15, ABT-869 5 mg/kg po bid×21, p<0.01): significantly better than vehicle | efficacy vs vehicle by both time to tumor doubling and time to tumor endpoint ([2]; FIG. 15, p<0.01): significantly better than vehicle

CS(=O)(=O)N1CCN(Cc2cc3nc(-c4cccc5[nH]ncc45)nc(N4CCOCC4)c3s2)CC1 [GDC-0941, 4-(2-(1H-indazol-4-yl)-6-((4-(methylsulfonyl)piperazin-1-yl)methyl)thieno[3,2-d]pyrimidin-4-yl)morpholine]
complete response (CR) [3, 6]: 0 | partial responses (PR) [3, 6]: 0 | complete response (CR) [3, 7]: 0 | partial responses (PR) [3, 7]: 1 | complete response (CR) [3, 8]: 0 | partial responses (PR) [3, 8]: 0 | phospho-Akt and phospho-ERK [4]: inhibition | phosphorylation of Rb and PRAS40 [4]: decreased phosphorylation | safety of the dose as a single agent [5]: safe as a single agent without any dose limiting toxicities

Cc1c(CN2CCN(C(=O)[C@H](C)O)CC2)sc2c(N3CCOCC3)nc(-c3cnc(N)nc3)nc12 [GNE-390, (S)-1-(4-((2-(2-aminopyrimidin-5-yl)-7-methyl-4-morpholinothieno[3,2-d]pyrimidin-6-yl)methyl)piperazin-1-yl)-2-hydroxypropan-1-one]
complete response (CR) [3, 9]: 0 | partial responses (PR) [3, 9]: 0 | complete response (CR) [3, 10]: 0 | partial responses (PR) [3, 10]: 1

CC(=O)O[C@@]12CO[C@@H]1C[C@H](O)[C@@]1(C)C(=O)[C@H](O)C3=C(C)[C@@H](OC(=O)[C@H](O)[C@@H](NC(=O)OC(C)(C)C)c4ccccc4)C[C@@](O)([C@@H](OC(=O)c4ccccc4)[C@H]21)C3(C)C [docetaxel, (2R,3S)—N-carboxy-3-phenylisoserine, N-tert-butyl ester, 13-ester with 5,20-epoxy-1,2,4,7,10,13-hexahydroxytax-11-en-9-one 4-acetate 2-benzoate, trihydrate, reference compound]
partial responses (PR) ([2]; FIG. 16, docetaxel 30 mg/kg iv qwk×3): 2

CS(=O)(=O)CCNCc1ccc(-c2ccc3ncnc(Nc4ccc(OCc5cccc(F)c5)c(Cl)c4)c3c2)o1 [lapatinib, N-(3-chloro-4-(3-fluorobenzyloxy)phenyl)-6-(5-((2-(methylsulfonyl)ethylamino)methyl)furan-2-yl)quinazolin-4-amine, reference compound]
single agent efficacy vs vehicle [2]: not different from vehicle

T-DM1
single agent efficacy vs vehicle [2]: efficacious as a single agent | efficacy vs vehicle by both time to tumor doubling and time to tumor endpoint ([2]; FIG. 15, p<0.01): significantly better than vehicle | objective responses ([2]; FIG. 16, T-DM1 7.5 mg/kg iv q3wk×2): no objective responses | complete response (CR) [2, 11]: 1 and 2 | partial responses (PR) [2, 11]: 6 and 5 | complete responses (CR) [2, 12]: 3 | partial responses (PR) [2, 12]: 6 | complete responses (CR) [1]: 0 | partial responses (PR) [1]: 1 | complete response (CR) [3, 13]: 1 | partial responses (PR) [3, 13]: 1 | complete response (CR) [3, 14]: 1 | partial responses (PR) [3, 14]: 8 | apoptosis (23 kDa PARP-cleavage fragment, Bcl-XL, activation of caspases 3 and 7) [4]: resulted in apoptosis | phospho-Akt and phospho-ERK [4]: inhibition | levels of the mitotic markers phospho-histone H3 and cyclin B1 ([4]; after treatment): increased levels | complete responses (CR) (KPL-4 tumors; T-DM1 0.3 mg/kg once on day 0): 0 | partial responses (PR) (KPL-4 tumors; T-DM1 0.3 mg/kg once on day 0): 0 | complete responses (CR) (KPL-4 tumors; T-DM1 1 mg/kg once on day 0): 0 | partial responses (PR) (KPL-4 tumors; T-DM1 1 mg/kg once on day 0): 1 | complete responses (CR) (KPL-4 tumors; T-DM1 3 mg/kg once on day 0): 0 | partial responses (PR) (KPL-4 tumors; T-DM1 3 mg/kg once on day 0): 7 | remaining tumors less than 50 mm^3 with no evidence of viable tumor cells (histology, end of study) (KPL-4 tumors; FIG. 11, T-DM1 5 mg/kg single iv, 5-FU 100 mg/kg qwk×3, pertuzumab 40 mg/kg qwk×4): 8 samples

pertuzumab: recombinant, humanized monoclonal antibody that inhibits dimerization of HER2 (CAS Reg. No. 380610-27-5) [reference compound]
single agent efficacy vs vehicle [2]: not different from vehicle | complete responses (CR) (KPL-4 tumors; [15]): 0 | partial responses (PR) (KPL-4 tumors; [15]): 0
